Experimental data published in BindingDB's records for doi:10.1073/pnas.71.5.1725 (1974).
pKi: −log10 of the molar value.

Target: T1, Muscarinic acetylcholine receptor M2 (Rattus norvegicus, UniProt P10980)
T1 sequence (P10980 whole entry): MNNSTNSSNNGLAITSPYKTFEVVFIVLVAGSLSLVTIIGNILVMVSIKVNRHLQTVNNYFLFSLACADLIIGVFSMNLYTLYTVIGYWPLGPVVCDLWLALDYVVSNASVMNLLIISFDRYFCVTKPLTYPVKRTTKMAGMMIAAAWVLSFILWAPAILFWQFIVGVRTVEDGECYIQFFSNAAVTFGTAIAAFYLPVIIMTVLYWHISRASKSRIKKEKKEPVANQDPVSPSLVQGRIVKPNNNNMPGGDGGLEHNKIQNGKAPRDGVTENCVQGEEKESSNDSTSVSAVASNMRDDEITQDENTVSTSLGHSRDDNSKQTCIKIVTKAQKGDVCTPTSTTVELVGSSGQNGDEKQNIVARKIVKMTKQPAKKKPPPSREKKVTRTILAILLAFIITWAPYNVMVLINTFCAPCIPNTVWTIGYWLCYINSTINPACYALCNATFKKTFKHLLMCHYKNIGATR

**Q.** With `CC(C)[N+](C)(CCC(C(N)=O)(c1ccccc1)c1ccccc1)C(C)C` as the compound, how does the pKi read?
**A.** 9.00

**Q.** With `O=C1CCCN1CC#CCN1CCCC1` [1-[4-(2-oxo-pyrrolidin-1-yl)-but-2-ynyl]-pyrrolidinium] as the compound, how does the pKi read?
**A.** 6.30

**Q.** With `CN(C)CCC(c1ccc(Br)cc1)c1ccccn1` (stereo not drawn) [2-(p-bromo-alpha-(2-dimethylaminoethyl)benzyl)pyridine] as the compound, how does the pKi read?
**A.** < 5.00

**Q.** With `O=C(O)C=CC(=O)Oc1ccc(Cl)cc1` [NSC_6445134] as the compound, how does the pKi read?
**A.** < 5.00

**Q.** `CN(C)CCC(c1ccc(Cl)cc1)c1ccccn1` (stereo not given) [clorfeniramina] was tested. Which pKi did it give?
**A.** < 5.00
